These are literature values, as cited in patent US6713046B1, “Magnetic resonance imaging agents for the delivery of therapeutic agents” (Research Corporation Technologies, priority 1997, dated 2004).

The conditions of this data set: thermodynamic stability of the Gd(III) chelate complex; background statement.

Consider `O=C([O-])CN1CCN(CC(=O)[O-])CCN(CC(=O)O)CCN(CC(=O)[O-])CC1.[Gd+3]` [Gd-DOTA], for which the “stability constant (K), formation constant, logK” value is listed as 28.5.
